# According to patent US6399745B1, “Use of leptin antagonists for treating insulin resistance in type II diabetes” (Aventis Pharma Deutschland GmbH, priority 1996, dated 2002):
# Columns and labels:
# isolated rat adipocytes [1] = test: Antagonism of fragment 116-167 to the leptin effect: insulin-stimulated glucose transport; type: cell-based
# Protocol: Adipocytes were prepared from the epididymal fat tissue of male Wistar rats (140-160 g, Hoechst AG breeding station, Kastengrund) by means of digesting with collagenase (Rodbell, 1964, J. Biol. Chem. 239, 375-380), washed twice with KRH (25 mM Hepes free acid, 25 mM Hepes sodium salt, 80 mM NaCl, 1 mM MgSO4, 2 mM CaCl2, 6 mM KCl, 1 mM sodium pyruvate, 0.5% BSA) and once with DMEM (Dulbecco's minimal essential medium), supplemented with 5.5 mM glucose, 20 mM Hepes (pH 7.4), 2% fetal calf serum, 1% BSA, 50 U of penicillin/ml, […], by means of flotation (800×g, 1 min, in small plastic tubes), and finally diluted to a volume of 20 ml of DMEM/g wet weight of the fat tissue (cell titer: approximately 2.5×10^5 cells/ml). […]
# Glucose transport was measured as the specific uptake of the non-metabolizable glucose analog 2-deoxyglucose (Muller and Wied, 1993, Diabetes 42, 1852-1867). […] After 10 ml of scintillation fluid (water-based) had been added, the radioactivity associated with the cells was measured. […]
# Isolated rat adipocytes were incubated for 17.5 h in primary culture in the presence or absence of leptin (10 nM) and increasing concentrations of leptin fragment 116-167. […] The stimulation factor for insulin was calculated as the ratio between the insulin-stimulated activity and the basal activity. […]
# isolated rat adipocytes [2] = test: Lipogenesis (incorporation of D-glucose into toluene-extractable lipids) in isolated rat adipocytes after primary culture with leptin; type: cell-based; conditions: for Lipogenesis, stimulation factor for insulin (stimulated/basal): Insulin concentration: 5 nM
# Protocol: Adipocytes were prepared from the epididymal fat tissue of male Wistar rats (140-160 g, Hoechst AG breeding station, Kastengrund) by means of digesting with collagenase (Rodbell, 1964, J. Biol. Chem. 239, 375-380), washed twice with KRH (25 mM Hepes free acid, 25 mM Hepes sodium salt, 80 mM NaCl, 1 mM MgSO4, 2 mM CaCl2, 6 mM KCl, 1 mM sodium pyruvate, 0.5% BSA) and once with DMEM (Dulbecco's minimal essential medium), supplemented with 5.5 mM glucose, 20 mM Hepes (pH 7.4), 2% fetal calf serum, 1% BSA, 50 U of penicillin/ml, […], by means of flotation (800×g, 1 min, in small plastic tubes), and finally diluted to a volume of 20 ml of DMEM/g wet weight of the fat tissue (cell titer: approximately 2.5×10^5 cells/ml). The adipocytes were incubated, at 37° C. for 15-18 h under an atmosphere of 5% CO2 and with gentle shaking, in supplemented (see above) DMEM in the presence of 100 nM phenylisopropyladenosine (4 ml of DMEM to 1 ml of cells, cell titer approximately 5×10^4 cell/ml, in 50 ml sterile polypropylene: tubes) and in the presence or absence of leptin. The adipocytes were subsequently washed three times with cold KRH and adjusted to a cell titer of approximately 3×10^5 cells/ml by adding 0.7 ml of glucose-free KRH to the cell layer which remained after the complete removal of the last washing solution. In order to determine the capacity of the adipocytes to be stimulated by insulin, and their sensitivity to insulin, following the primary culture, the washed adipocytes were incubated at 37° C. for 20 min in the absence or presence of human insulin (0.02-50 nM final concentration), and glucose transport or lipogenesis was then measured. Lipogenesis was measured as the incorporation of D-glucose into toluene-extractable lipids (Moody et al., 1974, Horm. Metab. Res. 6, 12-16). 200 μl of the adipocyte suspension in KRH were incubated in scintillation vials, at 37° C. for 20 min, in 680 μl of KRH which was supplemented with 3.5 mM glucose and 20 μl of insulin solution. Lipogenesis was started by adding 100 μl of D-[3-^3H]glucose (25 μCi/ml KRH). After incubating at 37° C., and gently shaking under an atmosphere of 5% CO2, for 90 min, 10 ml of scintillation fluid (toluene-based) were added and the radioactivity in the toluene phase was determined after shaking vigorously and subsequent phase separation (at least 4 h of incubation). The radioactivity of the lipids in the toluene phase was corrected for the radioactivity of an incubation mixture which contained the same quantity of [^3H]glucose but no cells. Isolated rat adipocytes were incubated for 15 h in primary culture in the presence or absence of increasing concentrations of leptin. The cells were then washed and tested for glucose transport and lipogenesis in the basal and insulin (10 nM)-stimulated states. The stimulation factor for insulin was calculated as the ratio between insulin-stimulated and basal activities. Each value represents the mean from two independent adipocyte cultures with activity being determined two or three times in each case.
substance,measurement,setting,value
Insulin: human insulin used to stimulate adipocytes [reference compound],"Glucose Transport, stimulation factor for insulin (stimulated/basal)","isolated rat adipocytes [1]; Insulin only, 5 nM (no leptin, no fragment)",13.4
same,"Lipogenesis, stimulation factor for insulin (stimulated/basal)",isolated rat adipocytes [2]; no leptin,3.9
Leptin,"Glucose Transport, stimulation factor for insulin (stimulated/basal)","isolated rat adipocytes [1]; Leptin: 10 nM 17.5 h, no fragment, Insulin: 5 nM",3.55
same,"Lipogenesis, stimulation factor for insulin (stimulated/basal)",isolated rat adipocytes [2]; leptin 0.3 nM 15 h,3.9
same,"Lipogenesis, stimulation factor for insulin (stimulated/basal)",isolated rat adipocytes [2]; leptin 1 nM 15 h,3.2
same,"Lipogenesis, stimulation factor for insulin (stimulated/basal)",isolated rat adipocytes [2]; leptin 3 nM 15 h,2.15
same,"Lipogenesis, stimulation factor for insulin (stimulated/basal)",isolated rat adipocytes [2]; leptin 10 nM 15 h,1.5
same,"Lipogenesis, stimulation factor for insulin (stimulated/basal)",isolated rat adipocytes [2]; leptin 30 nM 15 h,1.15
same,"Lipogenesis, stimulation factor for insulin (stimulated/basal)",isolated rat adipocytes [2]; leptin 100 nM 15 h,1.05
same,insulin sensitivity of stimulation of lipogenesis,"isolated rat adipocytes [2]; leptin, basal values unaffected",drastically reduced
